# Calls of active or inactive are those of the source.
# Key:
# [1] = molecular target: T1, Rac GTPase-activating protein 1 (Homo sapiens, UniProt Q9H0H5); assay: blockers of MgcRacGAP-driven Rac1 GTP hydrolysis – biochemical, ADP Hunter fluorescence, primary and confirmatory, confirmation (AID 624330); type: functional
# T1 sequence (Q9H0H5 whole entry): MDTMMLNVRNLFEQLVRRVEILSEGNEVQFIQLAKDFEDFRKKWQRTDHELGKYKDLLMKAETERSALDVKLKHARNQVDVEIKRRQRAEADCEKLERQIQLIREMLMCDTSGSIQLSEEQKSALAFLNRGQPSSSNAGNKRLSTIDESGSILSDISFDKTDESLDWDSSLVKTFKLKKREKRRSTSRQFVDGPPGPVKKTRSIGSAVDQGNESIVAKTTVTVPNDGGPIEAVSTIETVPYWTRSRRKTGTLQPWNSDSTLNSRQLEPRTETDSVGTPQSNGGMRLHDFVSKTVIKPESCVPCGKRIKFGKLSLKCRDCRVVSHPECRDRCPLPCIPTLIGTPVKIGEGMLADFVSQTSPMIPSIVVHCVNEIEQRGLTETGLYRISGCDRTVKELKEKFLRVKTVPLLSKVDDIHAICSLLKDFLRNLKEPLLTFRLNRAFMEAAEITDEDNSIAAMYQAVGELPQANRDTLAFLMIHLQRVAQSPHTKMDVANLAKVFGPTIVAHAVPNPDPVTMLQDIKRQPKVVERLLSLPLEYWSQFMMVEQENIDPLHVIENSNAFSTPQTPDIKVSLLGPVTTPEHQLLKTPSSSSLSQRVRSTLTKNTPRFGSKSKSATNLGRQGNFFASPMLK
# Cytochrome P450 2C9 = Cytochrome P450 2C9 (Homo sapiens, UniProt P11712)
# Cytochrome P450 2C19 = Cytochrome P450 2C19 (Homo sapiens, UniProt P33261); assay: Cytochrome panel assay with activity outcomes. Panel member name: p450-cyp2c19 Compounds with AC50 equal or less than 10 uM are considered active; type: functional; details: read-out: AC50
# Cytochrome P450 2D6 = Cytochrome P450 2D6 (Homo sapiens, UniProt P10635);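 note: CYP2D6 member of a cytochrome P450 panel assay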
# Cytochrome P450 3A4 = Cytochrome P450 3A4 (Homo sapiens, UniProt P08684);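 note: CYP3A4 tested as one member of a cytochrome P450 panel screen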
# Cytochrome P450 1A2 = molecular target: T2, Cytochrome P450 1A2 (Homo sapiens, UniProt P05177);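 note: PubChem cytochrome P450 panel assay, CYP1A2 panel member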
# T2 sequence (P05177 whole entry): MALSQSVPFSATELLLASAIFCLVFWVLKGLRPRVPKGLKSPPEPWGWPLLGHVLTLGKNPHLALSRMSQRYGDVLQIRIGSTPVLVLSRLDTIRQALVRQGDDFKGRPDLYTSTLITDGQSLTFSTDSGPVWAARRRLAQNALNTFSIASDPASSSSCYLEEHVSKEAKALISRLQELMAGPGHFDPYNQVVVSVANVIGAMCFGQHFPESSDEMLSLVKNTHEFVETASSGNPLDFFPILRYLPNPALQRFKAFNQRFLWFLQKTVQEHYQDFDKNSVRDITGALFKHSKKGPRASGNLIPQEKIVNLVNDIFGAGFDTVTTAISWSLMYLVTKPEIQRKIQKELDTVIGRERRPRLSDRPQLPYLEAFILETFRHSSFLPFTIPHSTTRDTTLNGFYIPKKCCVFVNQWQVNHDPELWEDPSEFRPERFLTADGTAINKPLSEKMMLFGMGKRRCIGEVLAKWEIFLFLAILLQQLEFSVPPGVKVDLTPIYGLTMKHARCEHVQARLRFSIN
# H4 = assay: Luminescence Cell-Based Dose Response HTS to Identify Activators of 5'UTR Stem-Loop Driven Prion Protein mRNA Translation in H4 Neuroglioblastoma Cells. [Related pubchem assays: 1829 (Project Summary), 1814 (Primary HTS)]; type: functional; details: Homo sapiens
# [2] = Luminescence Cell-Based Dose Response HTS to Identify Activators of Luciferase Translation or Activity in H4 […] Cells. [Related pubchem assays: 1829 (Project Summary), 1814 (Primary HTS)]; type: functional
# [3] = molecular target: T3, Corticotropin-releasing factor receptor 2/Corticotropin-releasing factor-binding protein (Homo sapiens, UniProt P24387+Q13324); assay: Dose Response confirmation of uHTS hits for small molecule antagonists of the CRF-binding protein and CRF-R2 receptor complex.; type: functional; details: read-out: IC50_Mean
# T3 sequence (Q13324 whole entry): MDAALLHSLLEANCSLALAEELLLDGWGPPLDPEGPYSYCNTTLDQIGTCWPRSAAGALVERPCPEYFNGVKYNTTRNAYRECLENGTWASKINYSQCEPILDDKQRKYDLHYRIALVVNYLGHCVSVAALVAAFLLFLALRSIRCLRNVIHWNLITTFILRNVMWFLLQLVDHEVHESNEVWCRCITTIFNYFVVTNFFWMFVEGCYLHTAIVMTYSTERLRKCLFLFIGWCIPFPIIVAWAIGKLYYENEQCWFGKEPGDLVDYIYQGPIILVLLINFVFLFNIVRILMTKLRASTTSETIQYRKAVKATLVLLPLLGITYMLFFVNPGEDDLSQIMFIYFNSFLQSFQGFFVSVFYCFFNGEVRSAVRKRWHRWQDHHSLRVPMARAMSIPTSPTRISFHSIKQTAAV
# T3 sequence (P24387 whole entry): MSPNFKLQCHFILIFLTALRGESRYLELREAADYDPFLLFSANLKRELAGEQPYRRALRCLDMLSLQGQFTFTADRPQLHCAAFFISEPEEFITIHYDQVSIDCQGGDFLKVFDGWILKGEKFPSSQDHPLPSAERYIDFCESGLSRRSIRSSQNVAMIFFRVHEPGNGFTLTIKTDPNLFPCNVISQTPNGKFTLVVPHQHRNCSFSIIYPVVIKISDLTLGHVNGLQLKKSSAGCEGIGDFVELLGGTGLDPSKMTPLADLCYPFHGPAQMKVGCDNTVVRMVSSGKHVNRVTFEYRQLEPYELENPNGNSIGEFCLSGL
# [4] = molecular target: T3, Corticotropin-releasing factor receptor 2/Corticotropin-releasing factor-binding protein; assay: activators of CRF receptor 2 with binding protein – uHTS hits, confirmation (AID 602473); type: functional; details: read-out: EC50_Mean
# [5] = fluconazole-exposed Candida albicans growth modulators – fluorescence, retest, confirmation (AID 2467); type: functional, cell-based
# [6] = NIH-3T3 fibroblast cytotoxicity, dose response, cytotoxicity control, cell-based, fluorescence, Alamar Blue, secondary assay (AID 2327); type: functional;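 note: NIH-3T3 mouse fibroblasts cultured with fluconazole at 8 µg/mL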
# [7] = viability of uninfected HEp-2 cells – cell-based, HTS, cytotoxicity control for RSV inhibitor project, dose response (AID 2410); type: functional; details: human respiratory syncytial virus
# Sequence of Cytochrome P450 2C19 (P33261 whole entry): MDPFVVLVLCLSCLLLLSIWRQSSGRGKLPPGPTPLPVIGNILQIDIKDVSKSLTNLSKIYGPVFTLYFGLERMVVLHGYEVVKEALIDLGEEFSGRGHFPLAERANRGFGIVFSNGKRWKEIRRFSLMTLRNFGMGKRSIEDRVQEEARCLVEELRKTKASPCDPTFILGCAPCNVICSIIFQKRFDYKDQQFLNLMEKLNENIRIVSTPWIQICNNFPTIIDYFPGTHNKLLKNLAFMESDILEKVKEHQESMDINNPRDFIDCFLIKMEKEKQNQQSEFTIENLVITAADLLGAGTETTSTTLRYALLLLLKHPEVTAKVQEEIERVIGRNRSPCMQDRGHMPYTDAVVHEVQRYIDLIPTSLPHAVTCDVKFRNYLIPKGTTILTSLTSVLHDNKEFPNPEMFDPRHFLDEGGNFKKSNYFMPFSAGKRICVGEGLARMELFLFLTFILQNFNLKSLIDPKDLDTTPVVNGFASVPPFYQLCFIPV
# Sequence of Cytochrome P450 2C9 (P11712 whole entry): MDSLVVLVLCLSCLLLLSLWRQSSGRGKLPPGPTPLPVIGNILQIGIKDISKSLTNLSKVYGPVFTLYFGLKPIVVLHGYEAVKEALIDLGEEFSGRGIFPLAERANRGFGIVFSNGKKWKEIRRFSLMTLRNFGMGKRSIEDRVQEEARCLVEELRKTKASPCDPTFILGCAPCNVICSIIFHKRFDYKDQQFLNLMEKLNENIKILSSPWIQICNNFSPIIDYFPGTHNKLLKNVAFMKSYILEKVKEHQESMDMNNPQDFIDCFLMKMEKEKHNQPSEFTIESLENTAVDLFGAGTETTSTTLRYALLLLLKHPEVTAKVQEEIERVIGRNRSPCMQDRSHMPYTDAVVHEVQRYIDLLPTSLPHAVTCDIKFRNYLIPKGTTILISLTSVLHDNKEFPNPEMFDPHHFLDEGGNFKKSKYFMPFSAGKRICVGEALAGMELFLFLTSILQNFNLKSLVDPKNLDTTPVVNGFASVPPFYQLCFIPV
# Sequence of Cytochrome P450 2D6 (P10635 whole entry): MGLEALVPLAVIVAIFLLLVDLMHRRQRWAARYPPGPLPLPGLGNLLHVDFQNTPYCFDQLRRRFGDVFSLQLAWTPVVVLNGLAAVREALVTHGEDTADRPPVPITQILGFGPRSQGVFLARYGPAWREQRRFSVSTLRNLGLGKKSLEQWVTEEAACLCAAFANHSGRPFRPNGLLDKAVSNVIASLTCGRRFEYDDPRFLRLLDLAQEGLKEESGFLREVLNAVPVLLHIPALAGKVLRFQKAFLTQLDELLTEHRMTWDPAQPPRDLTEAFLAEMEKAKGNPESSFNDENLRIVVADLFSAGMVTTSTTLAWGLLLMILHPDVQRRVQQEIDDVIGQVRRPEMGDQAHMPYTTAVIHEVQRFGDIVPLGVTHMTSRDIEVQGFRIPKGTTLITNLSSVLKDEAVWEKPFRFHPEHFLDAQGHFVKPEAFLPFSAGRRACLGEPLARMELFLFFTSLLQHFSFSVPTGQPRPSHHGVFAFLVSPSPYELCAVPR
# Sequence of Cytochrome P450 3A4 (P08684 whole entry): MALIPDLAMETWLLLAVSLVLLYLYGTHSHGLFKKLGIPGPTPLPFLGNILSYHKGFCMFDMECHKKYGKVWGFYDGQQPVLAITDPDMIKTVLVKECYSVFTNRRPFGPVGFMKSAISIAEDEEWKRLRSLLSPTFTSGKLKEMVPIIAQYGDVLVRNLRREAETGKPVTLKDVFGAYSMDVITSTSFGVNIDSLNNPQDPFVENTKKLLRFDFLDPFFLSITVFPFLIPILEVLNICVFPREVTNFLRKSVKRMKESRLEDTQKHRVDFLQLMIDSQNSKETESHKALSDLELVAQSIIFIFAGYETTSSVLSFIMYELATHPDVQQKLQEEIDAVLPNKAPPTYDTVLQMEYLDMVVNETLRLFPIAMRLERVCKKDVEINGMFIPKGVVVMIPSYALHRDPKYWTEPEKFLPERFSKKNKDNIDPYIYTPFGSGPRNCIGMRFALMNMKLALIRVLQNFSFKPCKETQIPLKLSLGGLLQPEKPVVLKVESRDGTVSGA
smiles,measurement,setting,value
COc1cc(NC(=O)COC(=O)/C=C/c2ccc(O)c(OC)c2)cc(OC)c1,IC50,[1],51.7 µM (active)
CCc1nnc(NC(=O)C2CCN(C(=O)NC3CCCCC3)CC2)s1,AC50,Cytochrome P450 2C9,20 µM (inconclusive)
same,AC50,Cytochrome P450 2C19,0.158 µM (inconclusive)
C=C(CC1([C@@H](NP(=O)(c2ccccc2)c2ccccc2)[C@H]2C[C@@H]2CCN(C(=O)OCC)S(=O)(=O)c2ccc(C)cc2)CC1)c1ccccc1,AC50,Cytochrome P450 2C9,5.01 µM (inconclusive)
same,AC50,Cytochrome P450 2C19,1.26 µM (inconclusive)
O=C1C(Cl)=C(Sc2nnc3c4ccccc4c4ccccc4c3n2)C(=O)c2ccccc21,AC50,Cytochrome P450 2C9,3.98 µM (inconclusive)
same,AC50,Cytochrome P450 2D6,3.98 µM (inconclusive)
same,AC50,Cytochrome P450 3A4,5.01 µM (inconclusive)
CC[C@H](NC(C)C)[C@H](O)c1ccc(O)c2[nH]c(=O)ccc12 [PROCATEROL],AC50,Cytochrome P450 1A2,39.8 µM (inconclusive)
same,AC50,Cytochrome P450 2D6,31.6 µM (inconclusive)
CCc1ccc(NC(=O)C2CCN(S(=O)(=O)c3c(C)nc(O)nc3O)CC2)cc1,AC50,Cytochrome P450 2C19,11.2 µM (inconclusive)
CCOc1ccc(/C=C2\CCC(C3CCCC3)C2=O)cc1 (stereo unspecified),EC50,H4,> 120 µM (not active)
same,EC50,[2],> 120 µM (not active)
CCOc1ccccc1NC(=O)COC(=O)C1COc2ccccc2O1 (stereo unspecified),IC50,[3],> 47.1 µM (inactive)
same,EC50,[4],> 53 µM (inactive)
CCOC(=O)C1CCN(c2cc3c(cc2NC(=O)c2cc(OC)ccc2Br)n(C)c(=O)n3C)CC1,IC50,[3],> 47.1 µM (inactive)
same,EC50,[4],> 53 µM (inactive)
CS(=O)(=O)Nc1cccc(-c2nccc(-n3ccnc3)n2)c1,AC50,Cytochrome P450 2C19,39.8 µM (inconclusive)
CCOC(=O)C1CCN(CCC(=O)Nc2ccc(F)cc2)CC1,EC50,[5],5.18 µM (active)
same,EC50,[6],> 150 µM (inactive)
Cc1c(/C=C2\SC(=O)N(CC(=O)Nc3ccc4c(c3)OCO4)C2=O)c2ccccc2n1C,AC50,Cytochrome P450 1A2,3.16 µM (inconclusive)
same,AC50,Cytochrome P450 2D6,2.82 µM (inconclusive)
same,AC50,Cytochrome P450 3A4,0.2 µM (inconclusive)
COc1cccc(Nc2ncc3ncc(=O)n(Cc4cccs4)c3n2)c1,AC50,Cytochrome P450 2C9,2.51 µM (inconclusive)
same,AC50,Cytochrome P450 2C19,3.98 µM (inconclusive)
same,AC50,Cytochrome P450 2D6,3.98 µM (inconclusive)
CS(=O)(=O)Nc1ccc(Nc2c3ccccc3nc3ccccc23)cc1,AC50,Cytochrome P450 2C9,6.31 µM (inconclusive)
same,AC50,Cytochrome P450 2D6,3.16 µM (inconclusive)
C=C1C(C(=O)Nc2ccccc2)C1C(=O)Nc1ccccc1 (stereo unspecified),IC50,[3],> 47.1 µM (inactive)
same,EC50,[4],> 53 µM (inactive)
CCCCCCCCCC(=O)NNC(=O)c1c(O)c2ccccc2n(CC)c1=O,EC50,[5],> 38 µM (not active)
same,EC50,[6],> 160 µM (inactive)
CCOC(=O)Nc1ccc(S(=O)(=O)NCc2ccccc2)cc1,AC50,Cytochrome P450 2C9,5.62 µM (inconclusive)
same,AC50,Cytochrome P450 2C19,2.24 µM (inconclusive)
same,AC50,Cytochrome P450 2D6,14.1 µM (inconclusive)
CCOC(=O)N/N=C/c1ccccc1F,AC50,Cytochrome P450 2C19,35.5 µM (inconclusive)
COc1cc(-c2c(-c3ccsc3)sc3ccccc23)cc(OC)c1OC,CC50,[7],33.7 µM (active)
COc1cccc(OC)c1OCCCCN1CCCC1,AC50,Cytochrome P450 1A2,15.8 µM (inconclusive)
same,AC50,Cytochrome P450 2D6,14.1 µM (inconclusive)
same,IC50,[1],204 µM (active)
OCCCN=C(S)Nc1ccc(Nc2ccccc2)cc1,IC50,[1],88 µM (active)

# — ChEMBL document CHEMBL1201862, “PubChem BioAssay data set” (2004)
